Values after ≈ are worked out from the molar mass of the structure shown.
Assays:
[1] = cited from earlier work
[2] = Equilibrium solubility, shake flask method, HPLC of KTZ; format: physicochemical; settings: for Equilibrium solubility, concentration of KTZ / solubility thermodynamic at 48 h: 37.0 °C, mean ± SD, triplicate; for Equilibrium solubility, concentration of KTZ / Solid-form stability of residual solids after equilibrium solubility experiments (PXRD) / solubility thermodynamic at 48 h: 48 h; for Solid-form stability of residual solids after equilibrium solubility experiments (PXRD): ultrapure water and pH 4.5 acetate buffer
Description: The solutions were stirred at 160 strokes min^−1 with a magnetic bar at 37 °C for 48 h to reach equilibrium. The suspension was filtered through a 0.22 μm nylon filter membrane, diluted appropriately, and analyzed by subsequent high-performance liquid chromatography (HPLC) analysis. […] An Agilent Eclipse XDB−C18 (250 mm × 4.6 mm, 5 μm) column was used throughout the process of elution with the column temperature set to 30 °C. The mobile phase, consisting of methanol and water (80/20, v/v), was run at 1.0 mL min^−1 with a detection wavelength of 254 nm. The injection sample volume was 10 μL. The measurements were performed based on an external standard method. All the solubility experiments were performed in triplicate and the results are expressed as the mean value ± standard deviation (SD). Residual solids were collected after the equilibrium solubility experiment and characterized by PXRD for solid-form stability examinations.

[3] = Powder dissolution experiments, basket method; format: physicochemical; settings: pure water and pH 4.5 acetate buffer, 37 °C, up to 480 min
Description: The powder dissolution experiments were performed via a dissolution apparatus (RC12AD dissolution tester, TDTF Technology Co., Ltd., Tianjin, China) by a basket method in pure water and pH 4.5 acetate buffer solution, respectively, with a rotation speed of 100 rpm under a temperature of 37 ± 0.2 °C [67]. […] At regular time intervals of 5, 15, 30, 60, 90, 120, 180, 240, 360, and 480 min, 1 mL of solution was extracted, and the withdrawn solutions were filtered using a 0.45 μm syringe tip filter. […] All the dissolution experiments were performed in triplicate. After the dissolution experiments, residual solids were collected, air-dried, and confirmed by PXRD.

pKa values and ΔpKa rule = format: physicochemical
Text: To understand the crystal nature of the obtained solid forms (a salt or a cocrystal), three commonly used principles have been summarized, such as the ΔpKa rule, the position of the hydroxyl-H atom retrieved from SCXRD data, and the structural characteristics of interacting groups. The pKa values of the starting functional groups, the ΔpKa values between the two considered groups, the geometric parameters of the C−O bond lengths of the carboxylic/carboxylate group, and the endocyclic C−N−C bond angle are provided in Table 2. Firstly, the ΔpKa rule has long been used for the prediction of salt or cocrystal formation. It is generally accepted that when ΔpKa is >4, proton transfer is expected to occur and salt is anticipated to form; when ΔpKa < −1, on the other hand, the formation of non-ionized cocrystals prevails over that of salts. However, if the ΔpKa values are located in the region of −1 to 4, it is impossible to provide a prediction of a salt or a cocrystal. […] Secondly, the residual density map provided by the SXRD data (Figure S3) could be used to distinguish the location of the H atom and, thus, the cocrystal, salt, and salt–cocrystal continuum could be distinguished. […] Thirdly, the ionization state of the structures was also supported by the difference in the C−O bond lengths in a carboxylic/carboxylate group and the bond angle of C24−N4−C25 in the imidazole ring. In a neutral carboxylic group, the length of C−O is longer than that of C=O, while in the carboxylate anion, there is nearly no difference between the bond lengths of C−O and C−O^− [47]. The endocyclic C−N−C bond angle of the cationic N-heterocycle is higher than that of the neutral state.

[4] = value of the coformer (CCF) of the crystal named in the line; source not given; cited from earlier work
[5] = Accelerated stability test, PXRD; format: physicochemical; settings: high temperature 60 °C, high humidity 90%, illumination 4500 lx; 0, 5, 10 days
Description: Approximately 50 mg of powdered samples were stored under the three test conditions and measured at regular time intervals (0, 5, and 10 days) by PXRD [68].

Row | Structure (SMILES) | Solubility in ultrapure water ([1]; ultrapure water) | Solubility of ketoconazole in distilled water ([2]; distilled water (abstract)) [µg/mL] | Equilibrium solubility, concentration of KTZ ([2]; pH 4.5 acetate buffer) [µg/mL] | Solid-form stability of residual solids after equilibrium solubility experiments (PXRD) ([2]; 37 °C) | Equilibrium solubility, concentration of KTZ ([2]; ultrapure water) [µg/mL] | Solid-form stability of residual solids after powder dissolution experiments (PXRD) [3] | ΔpKa Values between CCF and KTZ (pKa values and ΔpKa rule) | pKa Values of CCFs [4] | Solubility increase in water concerning ketoconazole ([2]; water) [fold] | solubility at 48 h ([2]; 37 °C, thermodynamic from solid, distilled water (abstract), read-out: Solubility of ketoconazole in distilled water) [µg/mL] | solubility thermodynamic at 48 h ([2]; aqueous buffer, thermodynamic from solid, pH 4.5 acetate buffer) [µg/mL] | solubility thermodynamic at 48 h ([2]; thermodynamic from solid, ultrapure water) [µg/mL] | Stability under accelerated storage conditions (PXRD) [5] | Solubility in water ([1]; water, 25 °C) [µg/mL]
1 | CC(=O)N1CCN(c2ccc(OCC3COC(Cn4ccnc4)(c4ccc(Cl)cc4Cl)O3)cc2)CC1.O=C(O)c1ccc(O)c(O)c1 (racemic) [KTZ-PCA-I] | approximately 500 μg mL^−1 |  |  |  |  |  |  |  |  |  |  |  |  | 
2 | CC(=O)N1CCN(c2ccc(OCC3COC(Cn4ccnc4)(c4ccc(Cl)cc4Cl)O3)cc2)CC1.O=C(O)c1c(O)cccc1O (racemic) [KTZ−26DHB] |  | 139.1 | 263.76 ± 8.51 | remained stable and nondissociable | 139.13 ± 14.25 | remained stable | 3.9 | 1.6 |  |  |  |  |  | 
3 | CC(=O)N1CCN(c2ccc(OCC3COC(Cn4ccnc4)(c4ccc(Cl)cc4Cl)O3)cc2)CC1.O=C(O)c1cc([N+](=O)[O-])cc([N+](=O)[O-])c1 (racemic) [KTZ−35DNB] |  | 191.7 | 273.66 ± 9.87 | remained stable and nondissociable | 191.67 ± 15.95 | remained stable | 3.7 | 2.8 |  |  |  |  |  | 
4 | CC(=O)N1CCN(c2ccc(OCC3COC(Cn4ccnc4)(c4ccc(Cl)cc4Cl)O3)cc2)CC1.O=C(O)CCCC(=O)O (racemic) [KTZ−GTA] |  | 2165.6 | 339.87 ± 28.33 |  | 2165.56 ± 251.34 |  | 2.2 | 4.3 | 1800 |  |  |  |  | 
5 | CC(=O)N1CCN(c2ccc(OCC3COC(Cn4ccnc4)(c4ccc(Cl)cc4Cl)O3)cc2)CC1.O=C(O)c1ccc(O)c(O)c1 (racemic) [KTZ−PCA-II] |  | 386.3 | 308.06 ± 33.95 |  | 386.34 ± 89.30 |  | 2.0 | 4.5 |  |  |  |  |  | 
6 | CC(=O)N1CCN(c2ccc(OCC3COC(Cn4ccnc4)(c4ccc(Cl)cc4Cl)O3)cc2)CC1 (stereo not drawn) [KTZ, cis-1-acetyl-4-[4-[[2-(2,4-dichlorophenyl)-2-(1-H-imidazole-1-ylmethyl)-1,3-dioxolan-4-yl]methoxy]phenyl] piperazine, reference compound] |  |  |  |  |  |  |  |  |  | 1.2 (≈ 2.26 µM) | 239 ± 4.69 (≈ 451 µM) | 1.2 ± 0.27 (≈ 2.26 µM) | stable | 0.087 (≈ 0.164 µM)
